Measurements reported in patent publication US12016942B2, “Potassium hydrogen salts of alkylhydroxamates and compositions comprising the same” (Inolex Investment Corporation, priority 2021, dated 2024).

Columns and labels:
[1] = cited from earlier work
[2] = Solution pH of alkali metal salts of caprylhydroxamic acid in deionized water; assay type: physicochemical; conditions: for Solution pH Difference: NaCH minus KH(CH)2
From the text: In some cases, the pH adjuster brings the aqueous formulation including potassium hydrogen alkylhydroxamate salts to a lower pH value than if no pH adjuster were employed in the compound. The amount of pH adjuster will depend upon the concentration of the potassium hydrogen alkylhydroxamate salts in aqueous solution. […] […] Target pH levels for the formulations as disclosed herein, e.g., for personal care products and the like, are less than pH 8. Minimal additions of the pH adjuster are required when using potassium hydrogen alkylhydroxamate salt compounds as described herein to achieve the desired pH less than 8.

[3] = Titration of aqueous solutions with 0.1 N HCl; assay type: physicochemical; conditions: for titration endpoint: 0.24 wt % aqueous solution, 0.1 N HCl
Experimental: Aqueous solutions (0.24 wt %) of KH(CH)2 and NaCH were prepared by dissolving the respective compounds of Example 1 and Comparative Example 1 in deionized water. The solutions were titrated with 0.1 N HCl solution using a Metrohm autotitrator.

Row | SMILES | pKa [1] | Solution pH ([2]; 0.15 % in deionized water) | Solution pH ([2]; 0.25 % in deionized water) | Solution pH ([2]; 0.50 % in deionized water) | pH value in a 1% aqueous solution [2] | Solution pH ([2]; 1.00 % in deionized water) | titration endpoint [3] [mL] | Solution pH Difference ([2]; 0.15 %) | Solution pH Difference ([2]; 0.25 %) | Solution pH Difference ([2]; 0.50 %) | Solution pH Difference ([2]; 1.00 %) | less acid required to neutralize vs NaCH solution ([3]; identical concentration 0.24 wt %)
1 | CCCCCCCC(=O)NO [CHA, caprylhydroxamic acid] | ≈ 9.4 | – | – | – | – | – | – | – | – | – | – | –
2 | CCCCCCCC(=O)N[O-].O.[Na+] [Comparative Example 1, sodium octanohydroxamate monohydrate, reference compound] | – | 10.26 | 10.85 | 10.95 | 11.0-11.5 | 11.10 | 18.4 | – | – | – | – | –
3 | CCCCCCCC(=O)NO.[K] [Example 1, potassium hydrogen caprylhydroxamate] | – | 9.35 | 9.64 | 9.60 | 9.0-10.0 | 9.58 | 10.7 | 0.91 | 1.21 | 1.35 | 1.52 | approximately 42%
